Assay results published in publication PMC7093416, “Selective USP7 inhibition elicits cancer cell killing through a p53-dependent mechanism” (Scientific Reports, 2020).

Tested on: panel of 484 cancer cell lines
Assay: PRISM cancer cell line profiling, 5 days
Assay type: cell-based
Set-up: AUC: unit not given beside the values
Procedure: Cancer cell line profiling was performed using the Broad’s PRISM platform. Cell treatment and data analysis were performed as described in Yu et al[42]. Raw Luminex signal was converted to AUC values for each cell line as described. The resulting AUC profile for each compound was modeled against DepMap using the limma package in R[71]. Because hotspot mutation analysis was performed against DepMap, TP53 annotations in Fig. 6c,d are directly from DepMap.

SMILES: COc1ccc(C2=N[C@@H](c3ccc(Cl)cc3)[C@@H](c3ccc(Cl)cc3)N2C(=O)N2CCNC(=O)C2)c(OC(C)C)c1 [Nutlin-3A]
- AUC (LCLC103H_LUNG): 1.118
- AUC (LI7_LIVER): 1.226
- AUC (LK2_LUNG): 1.169
- AUC (LMSU_STOMACH): 1.203
- AUC (LN18_CENTRAL_NERVOUS_SYSTEM): 0.9973
- AUC (LN229_CENTRAL_NERVOUS_SYSTEM): 1.064
- AUC (LNCAPCLONEFGC_PROSTATE): 0.906
- AUC (LOUNH91_LUNG): 1.066
- AUC (LOVO_LARGE_INTESTINE): 1.199
- AUC (LOXIMVI_SKIN): 0.8907
- AUC (LS180_LARGE_INTESTINE): 0.8897
- AUC (LS411N_LARGE_INTESTINE): 1.29
- AUC (LS513_LARGE_INTESTINE): 0.8844
- AUC (LS1034_LARGE_INTESTINE): 1.251
- AUC (LU99_LUNG): 0.8923
- AUC (LUDLU1_LUNG): 1.181
- AUC (LXF289_LUNG): 1.109
- AUC (MALME3M_SKIN): 0.9143
- AUC (MCAS_OVARY): 1.217
- AUC (MCF7_BREAST): 0.9374
- AUC (MDAMB175VII_BREAST): 0.8089
- AUC (MDAMB231_BREAST): 1.111
- AUC (MDAMB435S_SKIN): 1.081
- AUC (MDAMB436_BREAST): 1.063
- AUC (MDAMB468_BREAST): 1.113
- AUC (MELHO_SKIN): 1.198
- AUC (MELJUSO_SKIN): 0.855
- AUC (MESSA_SOFT_TISSUE): 0.8635
- AUC (MEWO_SKIN): 1.1265
- AUC (MFE280_ENDOMETRIUM): 1.185
- AUC (MFE296_ENDOMETRIUM): 1.073
- AUC (MFE319_ENDOMETRIUM): 1.2827
- AUC (MG63_BONE): 1.195
- AUC (MHHES1_BONE): 1.218
- AUC (MIAPACA2_PANCREAS): 1.097
- AUC (MKN1_STOMACH): 1.379
- AUC (MKN7_STOMACH): 1.0858
- AUC (MKN45_STOMACH): 0.8665
- AUC (MKN74_STOMACH): 1.252
- AUC (MON_SOFT_TISSUE): 0.7179
- AUC (MPP89_PLEURA): 1.087
- AUC (MSTO211H_PLEURA): 0.822
- AUC (NB1_AUTONOMIC_GANGLIA): 0.8777
- AUC (NCIH23_LUNG): 0.9857
- AUC (NCIH28_PLEURA): 0.8619
- AUC (NCIH226_LUNG): 0.8738
- AUC (NCIH292_LUNG): 0.8581
- AUC (NCIH322_LUNG): 1.162
- AUC (NCIH358_LUNG): 1.107
- AUC (NCIH446_LUNG): 1.181
- AUC (NCIH460_LUNG): 0.8926
- AUC (NCIH520_LUNG): 1.322
- AUC (NCIH522_LUNG): 1.212
- AUC (NCIH596_LUNG): 1.199
- AUC (NCIH650_LUNG): 1.249
- AUC (NCIH661_LUNG): 1.081
- AUC (NCIH727_LUNG): 1.026
- AUC (NCIH747_LARGE_INTESTINE): 1.189
- AUC (NCIH838_LUNG): 0.9622
- AUC (NCIH841_LUNG): 1.117
- AUC (NCIH1048_LUNG): 1.2735
- AUC (NCIH1299_LUNG): 1.108
- AUC (NCIH1339_LUNG): 1.0925
- AUC (NCIH1355_LUNG): 1.119
- AUC (NCIH1373_LUNG): 1.06
- AUC (NCIH1435_LUNG): 1.3405
- AUC (NCIH1437_LUNG): 1.108
- AUC (NCIH1563_LUNG): 0.9521
- AUC (NCIH1568_LUNG): 1.038
- AUC (NCIH1573_LUNG): 1.073
- AUC (NCIH1581_LUNG): 1.043
- AUC (NCIH1623_LUNG): 1.145
- AUC (NCIH1648_LUNG): 1.123
- AUC (NCIH1650_LUNG): 0.973
- AUC (NCIH1651_LUNG): 1.183
- AUC (NCIH1693_LUNG): 1.133
- AUC (NCIH1703_LUNG): 1.137
- AUC (NCIH1792_LUNG): 1.259
- AUC (NCIH1793_LUNG): 1.1676
- AUC (NCIH1838_LUNG): 1.199
- AUC (NCIH1915_LUNG): 1.099
- AUC (NCIH1944_LUNG): 0.8303
- AUC (NCIH1975_LUNG): 1.115
- AUC (NCIH2009_LUNG): 0.9703
- AUC (NCIH2023_LUNG): 1.159
- AUC (NCIH2030_LUNG): 1.1142
- AUC (NCIH2052_PLEURA): 0.8463
- AUC (NCIH2077_LUNG): 0.9696
- AUC (NCIH2087_LUNG): 1.211
- AUC (NCIH2110_LUNG): 1.143
- AUC (NCIH2122_LUNG): 0.8016
- AUC (NCIH2126_LUNG): 1.1108
